Target: T1, GPR158 (Homo sapiens, UniProt Q5T848)
T1 sequence (Q5T848 24-1215): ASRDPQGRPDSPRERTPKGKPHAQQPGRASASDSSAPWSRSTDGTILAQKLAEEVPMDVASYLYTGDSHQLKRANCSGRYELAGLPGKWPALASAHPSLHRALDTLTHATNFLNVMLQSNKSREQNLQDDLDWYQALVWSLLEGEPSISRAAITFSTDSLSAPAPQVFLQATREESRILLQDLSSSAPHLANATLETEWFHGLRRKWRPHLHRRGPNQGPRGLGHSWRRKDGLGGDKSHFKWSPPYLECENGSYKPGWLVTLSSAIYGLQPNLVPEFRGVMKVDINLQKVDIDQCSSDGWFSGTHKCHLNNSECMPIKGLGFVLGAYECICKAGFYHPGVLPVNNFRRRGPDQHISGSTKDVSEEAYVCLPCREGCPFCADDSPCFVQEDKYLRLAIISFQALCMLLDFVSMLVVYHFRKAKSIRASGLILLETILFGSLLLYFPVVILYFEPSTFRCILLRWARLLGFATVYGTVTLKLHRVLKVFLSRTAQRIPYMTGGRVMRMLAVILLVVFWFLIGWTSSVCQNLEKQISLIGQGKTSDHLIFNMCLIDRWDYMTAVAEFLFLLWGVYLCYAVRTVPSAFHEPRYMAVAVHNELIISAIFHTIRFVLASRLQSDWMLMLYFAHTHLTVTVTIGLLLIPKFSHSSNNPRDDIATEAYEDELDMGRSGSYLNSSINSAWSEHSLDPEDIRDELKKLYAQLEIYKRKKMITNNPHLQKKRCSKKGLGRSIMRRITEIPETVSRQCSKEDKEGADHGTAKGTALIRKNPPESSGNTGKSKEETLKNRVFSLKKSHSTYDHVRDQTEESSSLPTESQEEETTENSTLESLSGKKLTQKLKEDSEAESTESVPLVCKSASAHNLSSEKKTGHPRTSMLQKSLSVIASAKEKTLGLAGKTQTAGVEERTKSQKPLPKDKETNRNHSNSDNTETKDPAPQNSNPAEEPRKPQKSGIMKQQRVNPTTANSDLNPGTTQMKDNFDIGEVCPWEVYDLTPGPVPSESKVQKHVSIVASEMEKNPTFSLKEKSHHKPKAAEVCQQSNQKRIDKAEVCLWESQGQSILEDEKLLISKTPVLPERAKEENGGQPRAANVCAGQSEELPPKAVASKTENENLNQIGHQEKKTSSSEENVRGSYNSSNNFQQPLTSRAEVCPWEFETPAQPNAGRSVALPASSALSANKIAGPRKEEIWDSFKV
Test: BRET cAMP assay in U87 glioblastoma cells expressing GPR158
Type: cell-based
Parameters: expressed in transfected cells; host or cells: HEK293FT
Conditions: glycine 100 μM
From the text: FIGS. 1A-1E Identification of glycine as GPR158 ligand. A) 3D model of the GPR158 cache domain with putative ligand-binding pocket is shown as surface presentation with cartoon representation at the background. B) Schematic of the screening assay design. C) Quantification of cAMP changes mediated by GPR158. BRET signal in response to amino acid application detected in control cells is subtracted from the signal from cells expressing GPR158 and the difference is plotted. Dotted lines denote 2×SD confidence interval. Data shown represent mean±s.e.m. determined from 3 independent experiments performed in triplicate. D) Time course of cAMP change induced with 10 μM of forskolin in glioblastoma cells (U87 MG) in response to glycine (100 μM) application (arrow) in empty cells (control) or cells expressing indicated components. E) Quantification of maximal amplitudes of responses to glycine in panel d. Data shown represent mean±s.e.m. determined from 3 independent experiments performed in triplicate. **p<0.01 (one-way ANOVA).
To study this effect in more detail the inventors analyzed the individual responses to glycine in a kinetic mode.
HEK293FT cells were seeded in a white flat-bottom 96 well plate (Greiner Bio-One) at 50,000 cells per well and transiently transfected using Metafectene Pro with the manufacturer instruction. […] BRET measurements were made in living cells using a microplate reader (PHERAstar FSX; BMG Labtech) equipped with two emission photomultiplier tubes. […]
HEK293FT cells or U87 MG cells (ATCC HTB-14) when indicated were co-transfected with the CAMP sensor Camyel and with untagged receptors (respectively: empty vector, GPR158). BRET ratio was determined by calculating the ratio of the light emitted by RLuc (475 nm with a 30 nm band path width) over the light emitted by the Venus (535 nm with a 30 nm band path width) in order to measure an increase of the signal when cAMP increase. ΔBRET was calculated by subtracting the ctrl cell BRET result from GPR158 expressing cells BRET result in order to get specifically the signal from GPR158 removing all the non-specific signal. […]

cAMP change in cells lacking GPR158 (U87 cells without GPR158): No glycine-induced changes in cAMP
cAMP change with co-expressed RGS7/Gβ5 (U87 cells, GPR158 + RGS7/Gβ5): further potentiated
cAMP change (U87 glioblastoma cells expressing GPR158, forskolin 10 μM): resulted in cAMP decrease
SMILES: NCC(=O)O [glycine]

From patent US20260376293A1, “METHODS FOR STUDYING GPR158 PHARMACOLOGY AND IDENTIFICATION OF ITS LIGANDS” (UNIVERSITY OF FLORIDA RESEARCH FOUNDATION, INCORPORATED, priority 2022, published 2026)
